Test results taken from publication PMC12615753, “Glutathione as a taste modulator: molecular mechanisms of interaction with umami and sweet taste receptors” (Food Chemistry: Molecular Sciences, 2025).

Target: T1, hTAS1R1 Q278K/rTAS1R3 (Homo sapiens, UniProt Q7RTX1, Q278K)
T1 construct: UniProtKB number Q7RTX1–1); expressed in transfected cells; host or cells: HEK293T/17 (ATCC CRL-11268)
T1 sequence (Q7RTX1 21-841 Q278K): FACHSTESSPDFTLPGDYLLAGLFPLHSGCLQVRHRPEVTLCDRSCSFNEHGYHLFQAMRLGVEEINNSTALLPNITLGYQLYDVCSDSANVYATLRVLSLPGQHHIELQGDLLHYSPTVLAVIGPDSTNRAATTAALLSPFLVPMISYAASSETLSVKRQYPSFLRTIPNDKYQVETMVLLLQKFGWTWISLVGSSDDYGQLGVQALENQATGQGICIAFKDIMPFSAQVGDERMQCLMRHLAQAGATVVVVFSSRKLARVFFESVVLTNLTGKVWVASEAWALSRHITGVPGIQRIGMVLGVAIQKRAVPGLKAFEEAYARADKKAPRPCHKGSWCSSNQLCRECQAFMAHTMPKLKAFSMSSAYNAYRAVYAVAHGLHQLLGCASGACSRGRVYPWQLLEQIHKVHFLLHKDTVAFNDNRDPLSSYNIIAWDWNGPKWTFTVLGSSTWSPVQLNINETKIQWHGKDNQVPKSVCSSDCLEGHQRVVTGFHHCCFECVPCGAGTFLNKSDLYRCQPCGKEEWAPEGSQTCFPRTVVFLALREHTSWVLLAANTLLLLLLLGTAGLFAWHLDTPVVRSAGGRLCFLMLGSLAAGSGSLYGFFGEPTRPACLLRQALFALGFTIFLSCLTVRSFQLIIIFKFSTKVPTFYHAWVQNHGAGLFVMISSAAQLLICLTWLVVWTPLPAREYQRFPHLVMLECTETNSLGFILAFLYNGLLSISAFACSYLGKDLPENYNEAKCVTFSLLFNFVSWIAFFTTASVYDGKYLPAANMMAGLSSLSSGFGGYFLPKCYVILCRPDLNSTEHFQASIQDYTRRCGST
T1 sequence (Q923K1 21-858 partner): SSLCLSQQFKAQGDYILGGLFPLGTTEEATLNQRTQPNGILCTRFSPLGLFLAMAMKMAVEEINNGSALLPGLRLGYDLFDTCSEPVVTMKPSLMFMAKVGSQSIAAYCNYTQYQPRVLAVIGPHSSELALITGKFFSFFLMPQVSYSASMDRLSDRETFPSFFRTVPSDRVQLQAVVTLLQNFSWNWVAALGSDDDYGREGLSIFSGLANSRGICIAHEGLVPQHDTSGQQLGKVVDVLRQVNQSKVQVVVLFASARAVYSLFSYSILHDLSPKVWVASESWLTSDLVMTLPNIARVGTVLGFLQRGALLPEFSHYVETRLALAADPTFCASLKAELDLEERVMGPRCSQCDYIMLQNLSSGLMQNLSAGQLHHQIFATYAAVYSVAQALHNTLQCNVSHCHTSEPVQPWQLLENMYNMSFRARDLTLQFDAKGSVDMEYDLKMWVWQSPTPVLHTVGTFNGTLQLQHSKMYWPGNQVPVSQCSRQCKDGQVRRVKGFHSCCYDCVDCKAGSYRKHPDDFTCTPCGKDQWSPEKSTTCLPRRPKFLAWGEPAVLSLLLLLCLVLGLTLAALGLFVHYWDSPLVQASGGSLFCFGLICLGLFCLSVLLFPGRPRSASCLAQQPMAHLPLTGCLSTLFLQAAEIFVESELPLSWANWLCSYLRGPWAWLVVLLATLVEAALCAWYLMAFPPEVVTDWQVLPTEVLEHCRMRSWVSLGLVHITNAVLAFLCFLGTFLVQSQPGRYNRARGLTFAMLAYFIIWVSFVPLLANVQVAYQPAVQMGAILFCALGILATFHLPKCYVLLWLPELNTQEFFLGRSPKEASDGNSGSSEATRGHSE
Experiment: Calcium assay, hTAS1R1 mutant co-expressed with rTAS1R3
Assay type: cell-based, rat

N[C@@H](CCC(=O)N[C@@H](CS)C(=O)NCC(=O)O)C(=O)O [GSH, γ-L-glutamyl-L-cysteinyl-glycine]
EC50: 5.66 ± 0.31 mM
effect of the added compound (1 mM) on the response to L-Glu (Q278K): synergy was observed
response to the agonist alone, vs WT (Q278K): significantly increased the initial amplitude
Max ∆F/F0 (Q278K, GSH): 1.10 ± 0.02
R1 = mutant EC50/WT EC50 (Q278K, GSH): 2.2
